Reference: PMC7056863, “Development of a CDK10/CycM in vitro Kinase Screening Assay and Identification of First Small-Molecule Inhibitors” (Frontiers in Chemistry, 2020)
Read-outs that look alike come from different tables or passages of the source.

Tests used:
[1] = target: T1, GST-CDK10/Strep2-CycM (CDK10/CycM) (Homo sapiens, UniProt Q15131); assay: ADP-Glo luminescent kinase assay, CDK10tide (Jar1) peptide; format: biochemical
T1 construct: GST-CDK10 co-expressed with Strep2-CycM (pFastBacDual) in Sf9 cells, glutathione sepharose purified heterodimer, tags kept; with Cyclin-Q
Text: ADP-Glo luminescent kinase assay, CDK10tide (Jar1) peptide on GST-CDK10/Strep2-CycM (CDK10/CycM)

[2] = target: T1, GST-CDK10/Strep2-CycM (CDK10/CycM); assay: in vitro kinase assay; format: biochemical; settings: for inhibition at 1 µM: read-out: % inhibition at 1 uM
[3] = substrate: Nc1ncnc2c1ncn2[C@@H]1O[C@H](COP(=O)(O)OP(=O)(O)OP(=O)(O)O)[C@@H](O)[C@H]1O; assay: ADP-Glo luminescent kinase assay, ATP titration, Michaelis-Menten; format: biochemical, Homo sapiens; settings: […] CDK10tide, […] enzyme, […] ATP, […] MgCl2, pH […]
[4] = read-out: CDK10/CycM (measured herein)

T1 sequence (Q8N1B3 whole entry partner, one chain of several): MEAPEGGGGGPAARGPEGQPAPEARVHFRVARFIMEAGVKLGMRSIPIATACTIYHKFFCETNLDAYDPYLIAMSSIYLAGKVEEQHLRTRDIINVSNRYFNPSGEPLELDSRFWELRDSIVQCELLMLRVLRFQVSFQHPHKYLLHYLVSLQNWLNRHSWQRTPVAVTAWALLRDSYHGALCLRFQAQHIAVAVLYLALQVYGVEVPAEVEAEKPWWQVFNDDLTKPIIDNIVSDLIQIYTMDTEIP

Molecule `CC(=O)N[C@@H]1CCC[C@H](C(=O)Nc2cc(-c3cnn4c3CC(C)(C)C4)c(Cl)cn2)C1` [AZD4573] has an IC50 [1, 4] of 36 nM.

With `CC[C@H](CO)Nc1nc(NCc2ccc(-c3ccccn3)cc2)c2ncn(C(C)C)c2n1` [CR8] the inhibition at 1 µM [2] was under 50%.

For `CCc1cnn2c(NCc3ccc[n+]([O-])c3)cc(N3CCCC[C@H]3CCO)nc12` [dinaciclib], the IC50 ([1]; read-out: CDK9/CycT1 (measured herein)) was 13 nM.

`Cn1cnc2c(NCc3ccccc3)nc(NCCO)nc21` [olomoucine] was tested, and the inhibition at 1 µM [2] was under 50%.

With `CC(=O)c1c(C)c2cnc(Nc3ccc(N4CCNCC4)cn3)nc2n(C2CCCC2)c1=O` [palbociclib] the inhibition at 1 µM [2] was under 50%.

`CN1CC[C@H](c2c(O)cc(O)c3c(=O)cc(-c4ccccc4Cl)oc23)[C@H]1CO` [riviciclib] was tested, and the IC50 [1, 4] was 280 nM.

With `CC[C@H](CO)Nc1nc(NCc2ccccc2)c2ncn(C(C)C)c2n1` [roscovitine] the inhibition at 1 µM [2] was under 50%.

meriolin was tested, and the “% inhibition at 1 uM” value ([2]; data not shown, text: not greater than […]) was under 50%.

B1: GST-CDK10/Strep2-CycM (CDK10/CycM) (Homo sapiens) (protein)
chain: MAEPDLECEQIRLKCIRKEGFFTVPPEHRLGRCRSVKEFEKLNRIGEGTYGIVYRARDTQTDEIVALKKVRMDKEKDGIPISSLREITLLLRLRHPNIVELKEVVVGNHLESIFLVMGYCEQDLASLLENMPTPFSEAQVKCIVLQVLRGLQYLHRNFIIHRDLKVSNLLMTDKGCVKTADFGLARAYGVPVKPMTPKVVTLWYRAPELLLGTTTQTTSIDMWAVGCILAELLAHRPLLPGTSEIHQIDLIVQLLGTPSENIWPGFSKLPLVGQYSLRKQPYNNLKHKFPWLSEAGLRLLHFLFMYDPKKRATAGDCLESSYFKEKPLPCEPELMPTFPHHRNKRAAPATSEGQSKRCKP
notes: GST-CDK10 co-expressed with Strep2-CycM (pFastBacDual) in Sf9 cells, glutathione sepharose purified heterodimer, tags kept; with Cyclin-Q
With B1 the Km [3] was 177 µM.
